Reference: US20220298213A1, “IN VIVO ENGINEERED CEREBLON PROTEIN” (Vividion Therapeutics, Inc., priority 2018, published 2022)
Like-named read-outs stand apart in the source and are kept apart here.

Experiments:
Assay type in all cases: binding
CRBN Cys205 = target: T1, CRBN Cys205 (Homo sapiens, UniProt Q96SW2); assay: Inhibition of iodoacetamide probe labeling of CRBN cysteines, cell lysate (Table 3A); conditions: read-out: % inhibition of iodoacetamide probe labeling, Cys205
T1 construct: endogenous in cells
Procedure: (§1) “X@Y” means that x % inhibition of iodoacetamide probe labeling was observed by treatment of cell lysate with the give compound in each row of the table for 1 h at a concentration of y micromolar. There was consistently high inhibition at C318 in addition to C287, which can be attributed to an allosteric inhibition.

CRBN Cys219 = target: T2, CRBN Cys219 (Homo sapiens, UniProt Q96SW2); assay: as above; conditions: read-out: % inhibition of iodoacetamide probe labeling, Cys219
T2 construct: endogenous in cells
Procedure: as §1

CRBN Cys234 = target: T3, CRBN Cys234 (Homo sapiens, UniProt Q96SW2); assay: as above; conditions: read-out: % inhibition of iodoacetamide probe labeling, Cys234
T3 construct: endogenous in cells
Procedure: as §1

CRBN Cys287 = target: T4, CRBN Cys287 (Homo sapiens, UniProt Q96SW2); assay: as above
T4 construct: endogenous in cells
Procedure: as §1

CRBN Cys318 = target: T5, CRBN Cys318 (Homo sapiens, UniProt Q96SW2); assay: as above
T5 construct: endogenous in cells
Procedure: as §1

CRBN Cys343 = target: T6, CRBN Cys343 (Homo sapiens, UniProt Q96SW2); assay: as above; conditions: read-out: % inhibition of iodoacetamide probe labeling, Cys343
T6 construct: endogenous in cells
Procedure: as §1

CRBN_188 = target: T7, CRBN_188 (Homo sapiens, UniProt Q96SW2); assay: Probe labeling at native and denatured states after pretreatment (Table 2)
T7 construct: endogenous in cells; host or cells: cell lysate
Procedure: (§2) To determine whether the co-inhibition of C287 and C318 was due to a direct or indirect mechanism, CRBN was pretreated with various Michael acceptor compounds and then tested for probe labeling in its native and denatured states.
(§3) In each the cell lysate was pretreated with compound, for native state data the probe was immediately added and for denatured data the probe was added after an additional step of denaturation (schematic shown in FIG. 4).

CRBN_205 = target: T8, CRBN_205 (Homo sapiens, UniProt Q96SW2); assay: as above
T8 construct: endogenous in cells; host or cells: cell lysate
Procedure: as §2, §3

CRBN_219 = target: T9, CRBN_219 (Homo sapiens, UniProt Q96SW2); assay: as above
T9 construct: endogenous in cells; host or cells: cell lysate
Procedure: as §2, §3

CRBN_234 = target: T10, CRBN_234 (Homo sapiens, UniProt Q96SW2); assay: as above
T10 construct: endogenous in cells; host or cells: cell lysate
Procedure: as §2, §3

CRBN_310 = target: T11, CRBN_310 (Homo sapiens, UniProt Q96SW2); assay: as above
T11 construct: endogenous in cells; host or cells: cell lysate
Procedure: as §2, §3

CRBN_322 = target: T12, CRBN_322 (Homo sapiens, UniProt Q96SW2); assay: as above
T12 construct: endogenous in cells; host or cells: cell lysate
Procedure: as §2, §3

CRBN_326 = target: T13, CRBN_326 (Homo sapiens, UniProt Q96SW2); assay: as above
T13 construct: endogenous in cells; host or cells: cell lysate
Procedure: as §2, §3

CRBN_343 = target: T14, CRBN_343 (Homo sapiens, UniProt Q96SW2); assay: as above
T14 construct: endogenous in cells; host or cells: cell lysate
Procedure: as §2, §3

CRBN_441 = target: T15, CRBN_441 (Homo sapiens, UniProt Q96SW2); assay: as above
T15 construct: endogenous in cells; host or cells: cell lysate
Procedure: as §2, §3

BTK_481 = target: T16, BTK_481 (Homo sapiens, UniProt Q06187); assay: as above; conditions: screening concentration; for inhibition of probe labeling, BTK_481, Den.: denatured state; for inhibition of probe labeling, BTK_481, Nat.: native state
T16 construct: In each the cell lysate was pretreated with compound; endogenous in cells

TEC_449 = target: T17, TEC_449 (Homo sapiens, UniProt P42680); assay: as above; conditions: screening concentration; for inhibition of probe labeling, TEC_449, Den.: denatured state; for inhibition of probe labeling, TEC_449, Nat.: native state
T17 construct: In each the cell lysate was pretreated with compound; endogenous in cells
T17 sequence (P42680 1-631): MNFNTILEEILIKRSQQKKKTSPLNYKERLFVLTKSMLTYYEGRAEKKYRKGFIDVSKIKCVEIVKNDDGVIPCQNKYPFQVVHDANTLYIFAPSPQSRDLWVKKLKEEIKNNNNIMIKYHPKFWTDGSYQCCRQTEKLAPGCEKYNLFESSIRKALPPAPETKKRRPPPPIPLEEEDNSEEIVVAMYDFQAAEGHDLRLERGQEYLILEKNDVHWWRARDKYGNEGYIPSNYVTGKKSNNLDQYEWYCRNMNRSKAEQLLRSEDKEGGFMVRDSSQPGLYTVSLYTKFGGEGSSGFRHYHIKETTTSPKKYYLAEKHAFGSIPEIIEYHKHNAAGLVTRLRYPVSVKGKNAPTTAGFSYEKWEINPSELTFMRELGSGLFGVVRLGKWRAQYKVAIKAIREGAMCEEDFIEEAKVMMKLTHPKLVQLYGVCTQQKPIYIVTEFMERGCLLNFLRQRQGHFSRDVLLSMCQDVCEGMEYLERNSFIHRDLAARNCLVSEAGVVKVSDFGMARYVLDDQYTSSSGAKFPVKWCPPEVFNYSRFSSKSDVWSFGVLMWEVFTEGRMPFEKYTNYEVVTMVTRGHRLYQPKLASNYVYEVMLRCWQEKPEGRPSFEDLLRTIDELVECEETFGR

CRBN-287 = CRBN-287 (Homo sapiens, UniProt Q96SW2); assay: as above; design: endogenous in cells; host or cells: cell lysate; conditions: for inhibition of probe labeling, CRBN_287, Nat.: native state, cell lysate pretreated
Procedure: as §2, §3

CRBN-318 = CRBN-318 (Homo sapiens, UniProt Q96SW2); assay: as above; design: endogenous in cells; host or cells: cell lysate; conditions: for inhibition of probe labeling, CRBN_318, Nat.: native state, cell lysate pretreated
Procedure: as §2, §3

[1] = 0.8 micromolar, cell lysate, 1 h
[2] = 20 micromolar, cell lysate, 1 h
[3] = read-out: % inhibition of iodoacetamide probe labeling, Cys287
[4] = denatured state, screening concentration
[5] = native state, screening concentration
[6] = denatured state, probe added after denaturation, screening concentration

T13 sequence (Q96SW2 whole entry): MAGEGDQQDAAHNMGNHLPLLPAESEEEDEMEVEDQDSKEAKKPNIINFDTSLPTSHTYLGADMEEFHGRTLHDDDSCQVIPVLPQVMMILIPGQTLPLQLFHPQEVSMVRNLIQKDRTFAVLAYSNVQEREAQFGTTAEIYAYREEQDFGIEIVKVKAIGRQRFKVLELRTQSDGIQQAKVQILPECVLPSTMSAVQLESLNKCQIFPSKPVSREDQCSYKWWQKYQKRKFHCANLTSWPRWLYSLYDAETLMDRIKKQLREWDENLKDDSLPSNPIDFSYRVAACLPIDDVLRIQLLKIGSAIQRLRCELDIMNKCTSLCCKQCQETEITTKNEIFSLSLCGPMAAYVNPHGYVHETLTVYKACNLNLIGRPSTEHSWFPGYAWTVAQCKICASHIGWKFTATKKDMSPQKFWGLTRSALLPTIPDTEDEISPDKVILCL
T7 sequence (Q96SW2 whole entry): as above
T5 sequence (Q96SW2 whole entry): as above
T12 sequence (Q96SW2 whole entry): as above
T11 sequence (Q96SW2 whole entry): as above
T4 sequence (Q96SW2 whole entry): as above
Chain of CRBN-318 (Q96SW2 whole entry): as above
T8 sequence (Q96SW2 whole entry): as above
T14 sequence (Q96SW2 whole entry): as above
T9 sequence (Q96SW2 whole entry): as above
T10 sequence (Q96SW2 whole entry): as above
Chain of CRBN-287 (Q96SW2 whole entry): as above
T15 sequence (Q96SW2 whole entry): as above
T16 sequence (Q06187 whole entry): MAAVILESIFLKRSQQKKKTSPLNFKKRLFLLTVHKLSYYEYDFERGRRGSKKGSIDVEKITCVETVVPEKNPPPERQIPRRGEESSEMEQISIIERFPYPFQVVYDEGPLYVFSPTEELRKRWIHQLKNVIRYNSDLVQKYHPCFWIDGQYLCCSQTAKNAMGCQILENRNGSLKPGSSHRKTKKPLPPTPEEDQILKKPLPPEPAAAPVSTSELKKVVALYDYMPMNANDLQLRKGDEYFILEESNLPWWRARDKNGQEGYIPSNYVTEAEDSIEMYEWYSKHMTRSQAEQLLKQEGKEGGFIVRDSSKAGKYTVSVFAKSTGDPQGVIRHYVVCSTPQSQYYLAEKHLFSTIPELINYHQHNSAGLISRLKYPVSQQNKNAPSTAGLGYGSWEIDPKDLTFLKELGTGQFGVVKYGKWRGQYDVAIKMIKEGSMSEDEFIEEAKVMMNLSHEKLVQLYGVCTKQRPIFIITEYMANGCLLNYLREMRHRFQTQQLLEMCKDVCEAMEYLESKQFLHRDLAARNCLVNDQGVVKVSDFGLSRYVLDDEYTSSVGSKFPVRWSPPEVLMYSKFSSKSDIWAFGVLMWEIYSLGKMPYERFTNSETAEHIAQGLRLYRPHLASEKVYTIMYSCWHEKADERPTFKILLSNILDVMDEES
T2 sequence (Q96SW2 whole entry): as the sequence (Q96SW2 whole entry) above
T3 sequence (Q96SW2 whole entry): as above
T1 sequence (Q96SW2 whole entry): as above
T6 sequence (Q96SW2 whole entry): as above

Compound	inhibition of probe labeling, CRBN_188, Den. (CRBN_188; [4])	inhibition of probe labeling, CRBN_188, Nat. (CRBN_188; [5])	inhibition of probe labeling, CRBN_205, Den. (CRBN_205; [4])	inhibition of probe labeling, CRBN_205, Nat. (CRBN_205; [5])	inhibition of probe labeling, CRBN_219, Den. (CRBN_219; [4])	inhibition of probe labeling, CRBN_219, Nat. (CRBN_219; [5])	inhibition of probe labeling, CRBN_234, Den. (CRBN_234; [4])	inhibition of probe labeling, CRBN_234, Nat. (CRBN_234; [5])	inhibition of probe labeling, CRBN_310, Den. (CRBN_310; [4])	inhibition of probe labeling, CRBN_310, Nat. (CRBN_310; [5])	inhibition of probe labeling, CRBN_322, Den. (CRBN_322; [4])	inhibition of probe labeling, CRBN_322, Nat. (CRBN_322; [5])	inhibition of probe labeling, CRBN_326, Den. (CRBN_326; [4])	inhibition of probe labeling, CRBN_343, Den. (CRBN_343; [4])	inhibition of probe labeling, CRBN_441, Den. (CRBN_441; [4])	inhibition of probe labeling, BTK_481, Den. (BTK_481)	inhibition of probe labeling, BTK_481, Nat. (BTK_481)	inhibition of probe labeling, TEC_449, Den. (TEC_449)	inhibition of probe labeling, TEC_449, Nat. (TEC_449)	inhibition of probe labeling, CRBN_287, Den. (CRBN-287; [6])	further results
COc1ccccc1-c1cccc(OC2CN(C(=O)/C(C#N)=C/C(C)C)C2)c1 [Example A8]																					inhibition at 100 µM (CRBN Cys205): 19%; inhibition at 500 µM (CRBN Cys205): 32%; inhibition at 100 µM (CRBN Cys219): -5%; inhibition at 500 µM (CRBN Cys219): 4%; inhibition at 100 µM (CRBN Cys234): 31%; inhibition at 500 µM (CRBN Cys234): 44%; inhibition at 0.8 µM (CRBN Cys287; [1]): 80%; inhibition at 20 µM (CRBN Cys287; [2]): 94%; inhibition at 100 µM (CRBN Cys287; [3]): 96%; inhibition at 500 µM (CRBN Cys287; [3]): 98%; inhibition at 0.8 µM (CRBN Cys318; [1]): 76%; inhibition at 20 µM (CRBN Cys318; [2]): 90%; inhibition at 100 µM (CRBN Cys318; read-out: % inhibition of iodoacetamide probe labeling, Cys318, 100 micromolar, cell lysate, 1 h): 93%; inhibition at 500 µM (CRBN Cys318; read-out: % inhibition of iodoacetamide probe labeling, Cys318, 500 micromolar, cell lysate, 1 h): 96%; inhibition at 100 µM (CRBN Cys343): 10%
C=CC(=O)N1CCC(Oc2cc(C#N)cc(-c3ccccc3OC)c2)CC1 [drawing 205]	−28%	−18%	4%	−4%	−2%	−36%	26%	11%	43%	54%	19%	25%	−6%	−5%	−6%	21%	52%	33%	28%	91%	inhibition of probe labeling, CRBN_287, Nat. (CRBN-287; screening concentration): 98%; inhibition of probe labeling, CRBN_318, Den. (CRBN-318; [6]): 38%; inhibition of probe labeling, CRBN_318, Nat. (CRBN-318; screening concentration): 92%
C=CC(=O)N1CCC(Oc2cccc(-c3ccccc3OC)c2)CC1 [drawing 206]	−44%	−16%	0%	−20%	12%	−25%	21%	27%	35%	46%	27%	2%	−15%	−12%	−22%	−28%	2%	−4%	4%	76%	inhibition of probe labeling, CRBN_287, Nat. (CRBN-287; screening concentration): 91%; inhibition of probe labeling, CRBN_318, Den. (CRBN-318; [6]): 28%; inhibition of probe labeling, CRBN_318, Nat. (CRBN-318; screening concentration): 82%
C=CC(=O)N(c1ccccc1)c1ccc(Br)cc1 [reference compound]																98%	97%	95%	96%		inhibition of probe labeling, CRBN_188, Den. (CRBN_188): −6%; inhibition of probe labeling, CRBN_188, Nat. (CRBN_188): −36%; inhibition of probe labeling, CRBN_205, Den. (CRBN_205): 13%; inhibition of probe labeling, CRBN_205, Nat. (CRBN_205): −23%; inhibition of probe labeling, CRBN_219, Den. (CRBN_219): 57%; inhibition of probe labeling, CRBN_219, Nat. (CRBN_219): 40%; inhibition of probe labeling, CRBN_234, Den. (CRBN_234): 45%; inhibition of probe labeling, CRBN_234, Nat. (CRBN_234): −4%; inhibition of probe labeling, CRBN_310, Den. (CRBN_310): 50%; inhibition of probe labeling, CRBN_310, Nat. (CRBN_310): 2%; inhibition of probe labeling, CRBN_322, Den. (CRBN_322): 29%; inhibition of probe labeling, CRBN_322, Nat. (CRBN_322): 29%; inhibition of probe labeling, CRBN_326, Den. (CRBN_326): −8%; inhibition of probe labeling, CRBN_343, Den. (CRBN_343): −10%; inhibition of probe labeling, CRBN_441, Den. (CRBN_441): −26%; inhibition of probe labeling, CRBN_287, Den. (CRBN-287): 59%; inhibition of probe labeling, CRBN_318, Den. (CRBN-318): 53%
